In patent US6534542B2, “(2-hydroxy)ethyl-thioureas useful as modulators of α2B adrenergic receptors” (Allergen Sales, Inc., priority 2001, dated 2003):

Biological target: T1, alpha2B receptor (Homo sapiens, UniProt P18089)
T1 construct: expressed in transfected cells; host or cells: NIH-3T3
T1 sequence (P18089 1-450): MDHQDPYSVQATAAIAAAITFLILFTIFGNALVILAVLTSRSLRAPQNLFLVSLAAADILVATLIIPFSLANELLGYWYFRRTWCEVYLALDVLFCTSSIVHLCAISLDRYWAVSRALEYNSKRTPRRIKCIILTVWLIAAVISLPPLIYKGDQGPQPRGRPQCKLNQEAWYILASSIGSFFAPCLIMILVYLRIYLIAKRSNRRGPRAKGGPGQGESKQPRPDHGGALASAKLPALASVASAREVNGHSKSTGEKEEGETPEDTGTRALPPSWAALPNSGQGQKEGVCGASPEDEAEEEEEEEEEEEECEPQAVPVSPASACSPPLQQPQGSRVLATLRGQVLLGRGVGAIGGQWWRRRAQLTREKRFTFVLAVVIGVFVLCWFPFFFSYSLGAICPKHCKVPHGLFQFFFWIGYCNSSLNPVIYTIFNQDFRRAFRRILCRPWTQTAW
Assay: Receptor Selection and Amplification Technology (RSAT) assay, alpha2B
Type: cell-based
Details: NIH-3T3 cells; for EC50: NA = not active at concentrations less than 10 micromolar, read-out: RSAT EC50 (nM) Alpha 2B; for fraction of activity of the standard (brimonidine) attained, Alpha 2B (number in parenthesis): ratio of maximal effect to that of standard full agonist brimonidine
From the text: The compounds of the invention are agonists of α2 adrenergic receptors, particularly they tend to be specific or selective agonists of α2B and/or to a lesser extent α2C adrenergic receptors, in preference over α2A adrenergic receptors. […] Al., 1995, Pharmacol. Toxicol. 76, pp. 308-311 (incorporated herein by reference) and is also described below. Another reference pertinent to this assay is Conklin et al. (1993) Nature 363:274-6, also incorporated herein by reference.
The RSAT assay measures a receptor-mediated loss of contact inhibition that results in selective proliferation of receptor-containing cells in a mixed population of confluent cells. The increase in cell number is assessed with an appropriate transfected marker gene such as β-galactosidase, the activity of which can be easily measured in a 96-well format. Receptors that activate the G protein, Gq, elicit this response. Alpha2 receptors, which normally couple to Gi, activate the RSAT response when coexpressed with a hybrid Gq protein that has a Gi receptor recognition domain, called Gq/i5^2.
NIH-3T3 cells are plated at a density of 2×10^6 cells in 15 cm dishes and maintained in Dulbecco's modified Eagle's medium supplemented with 10% calf serum. One day later, cells are cotransfected by calcium phosphate precipitation with mammalian expression plasmids encoding p-SV-β-galactosidase (5-10 μg), receptor (1-2 μg) and G protein (1-2 μg). 40 μg salmon sperm DNA may also be included in the transfection mixture. Fresh media is added on the following day and 1-2 days later, cells are harvested and frozen in 50 assay aliquots. Cells are thawed and 100 μl added to 100 μl aliquots of various concentrations of drugs in triplicate in 96-well dishes. Incubations continue 72-96 hr at 37°. After washing with phosphate-buffered saline, β-galactosidase enzyme activity is determined by adding 200 μl of the chromogenic substrate (consisting of 3.5 mM o-nitrophenyl-β-D-galactopyranoside and 0.5% nonidet P-40 in phosphate buffered saline), incubating overnight at 30 and measuring optical density at 420 nm. The absorbance is a measure of enzyme activity, which depends on cell number and reflects a receptor-mediated cell proliferation. The EC50 and maximal effect of each drug at each alpha2 receptor is determined. The efficacy or intrinsic activity is calculated as a ratio of the maximal effect of the drug to the maximal effect of a standard full agonist for each receptor subtype. Brimonidine, also called […], the chemical structure of which is shown below, is used as the standard agonist for the alpha2A, alpha2B and alpha2C receptors. [drawing 6]
The results of the RSAT assay with several exemplary compounds of the invention are disclosed in Table 3. […] NA stands for “not active” at concentrations less than 10 micromolar. As is known EC50 is the concentration at which half of a given compound's maximal activity is observed. It can be seen from the table that the compounds of the invention are specific or selective agonists of α2B and/or α2C adrenergic receptors, with no agonist like activity or only with insignificant agonist-like activity on α2A receptors.

| SMILES | EC50 [nM] | fraction of activity of the standard (brimonidine) attained, Alpha 2B (number in parenthesis) |
| --- | --- | --- |
| CCC1=C(CNC(=S)NCCO)CCCC1 [Compound 24, 1-(2-Hydroxy-ethyl)-3-(2-ethyl-cyclohex-1-enylmethyl)-thiourea] | 772 | (0.71) |
| CC1=C(CNC(=S)NCCO)CCCC1 [Compound 23, 1-(2-Hydroxy-ethyl)-3-(2-methyl-cyclohex-1-enylmethyl)-thiourea] | 125 | (0.68) |
| CC1=CC(NC(=S)NCCO)CC1 (stereo not drawn) [Compound 13, 1-(2-Hydroxy-ethyl)-3-(3-methyl-cyclopent-2-enyl)-thiourea] | 111 | (0.66) |
| OCCNC(=S)NCC1CCCCCC1 [Compound 10, 1-Cycloheptylmethyl-3-(2-hydroxy-ethyl)-thiourea] | 355 | (0.54) |
| CC1C=C(CNC(=S)NCCO)CC1 (stereo not drawn) [Compound 28, 1-(2-Hydroxy-ethyl)-3-(3-methyl-cyclopent-1-enylmethyl)-thiourea] | 544 | (0.52) |
| CCC1=CCCCC1CNC(=S)NCCO (stereo not drawn) [Compound 22, 1-(2-Hydroxy-ethyl)-3-(2-ethyl-cyclohex-2-enylmethyl)-thiourea] | 126 | (0.73) |
| OCCNC(=S)N[C@H]1CC[C@H](O)CC1 [Compound 7, 1-(4-Hydroxy-cyclohexyl)-3-(2-hydroxy-ethyl)-thiourea] | > 2000 | (0.32) |
| CC1CCCCC1NC(=S)NCCO (stereo not drawn) [Compound 41, 1-(2-Methyl-cyclohexyl)-3-(2-hydroxy-ethyl)-thiourea] | 27 | (0.78) |
| CC1=CC(NC(=S)NCCO)CCC1 (stereo not drawn) [Compound 16, 1-(2-Hydroxy-ethyl)-3-(3-methyl-cyclohex-2-enyl)-thiourea] | 58 | (0.54) |
| CC[C@H]1CC[C@H](NC(=S)NCCO)CC1 [Compound 36, (trans)-1-(2-Hydroxy-ethyl)-3-(4-ethyl-cyclohexyl)-thiourea] | 97 | (0.53) |
| C[C@H]1CCC[C@H](NC(=S)NCCO)C1 (relative stereo) [Compound 38, (trans)-1-(2-Hydroxy-ethyl)-3-(3-methyl-cyclohexyl)-thiourea] | 1150 | (0.4) |
| CC(C)[C@@H]1CC[C@@H](C)C[C@H]1NC(=S)NCCO [Compound 2, 1-(2-Hydroxy-ethyl)-3-(1R,2S,5R-2-isopropyl-5-methyl-cyclohexyl)-thiourea] | 189 | (0.54) |
| OCCNC(=S)NCC1=CCCCC1 [Compound 3, 1-(Cyclohex-1-enylmethyl)-3-(2-hydroxy-ethyl)-thiourea] | 877 | (0.8) |
| CCC1=CC(NC(=S)NCCO)CCC1 (stereo not drawn) [Compound 32, 1-(2-Hydroxy-ethyl)-3-(3-ethyl-cyclohex-2-enyl)-thiourea] | 96 | (0.37) |

Continued by falling EC50, values first:

| EC50 [nM] | fraction of activity of the standard (brimonidine) attained, Alpha 2B (number in parenthesis) | SMILES |
| --- | --- | --- |
| 1530 | (0.47) | C[C@@H]1CCC[C@@H]1NC(=S)NCCO (relative stereo) [Compound 12, 1-(2-Hydroxy-ethyl)-3-(cis-2-methyl-cyclopentyl)-thiourea] |
| 816 | (0.48) | CCCCC1=CCCC1CNC(=S)NCCO (stereo not drawn) [Compound 26, 1-(2-Butyl-cyclopent-2-enylmethyl)-3-(2-hydroxy-ethyl)-thiourea] |
| 441 | (0.62) | OCCNC(=S)NCC1CCCC1 [Compound 9, 1-Cyclopentylmethyl-3-(2-hydroxy-ethyl)-thiourea] |
| 311 | (0.28) | OCCNC(=S)NC1CCCCC1 [Compound 6, 1-Cyclohexyl-3-(2-hydroxy-ethyl)-thiourea] |
| 216 | (0.49) | CCC[C@@H]1CCCC[C@H]1NC(=S)NCCO [Compound 5, 1-(2-Hydroxy-ethyl)-3-((1R,2R)-2-propyl-cyclohexyl)-thiourea] |
| 204 | (0.61) | OCCNC(=S)NCC1CCCCC1 [Compound 1, 1-Cyclohexylmethyl-3-(2-hydroxy-ethyl)-thiourea] |
| 90 | (0.84) | OCCNC(=S)NC1CCCC=C1Br (stereo not drawn) [Compound 29, 1-(2-Bromo-cyclohex-2-enyl)-3-(2-Hydroxy-ethyl)-thiourea] |
| 80 | (0.65) | C[C@H]1CCC[C@H](NC(=S)NCCO)C1 (single isomer, unassigned) [Compound 39, (cis)-1-(2-Hydroxy-ethyl)-3-(3-methyl-cyclohexyl)-thiourea] |
| 78 | (0.71) | CCCC1=CCCCC1NC(=S)NCCO (stereo not drawn) [Compound 30, 1-(2-Hydroxy-ethyl)-3-(2-propyl-cyclohex-2-enyl)-thiourea] |
| 72 | (0.87) | CC1=CCCCC1CNC(=S)NCCO (stereo not drawn) [Compound 21, 1-(2-Hydroxy-ethyl)-3-(2-methyl-cyclohex-2-enylmethyl)-thiourea] |
| 66 | (0.63) | OCCNC(=S)NCC1C=CCCC1 (stereo not drawn) [Compound 4, 1-(Cyclohex-2-enylmethyl)-3-(2-hydroxy-ethyl)-thiourea] |
| 55 | (0.46) | CCC1=CC(CNC(=S)NCCO)CCC1 (stereo not drawn) [Compound 19, 1-(2-Hydroxy-ethyl)-3-(3-ethyl-cyclohex-2-enylmethyl)-thiourea] |
| 37 | (0.78) | CC1=CC(CNC(=S)NCCO)CCC1 (stereo not drawn) [Compound 20, 1-(2-Hydroxy-ethyl)-3-(3-methyl-cyclohex-2-enylmethyl)-thiourea] |
| 20 | (0.93) | CC1CC=CCC1CNC(=S)NCCO (stereo not drawn) [Compound 11, 1-(2-hydroxy-ethyl)-3-(6-methyl-cyclohex-3-enylmethyl)-thiourea] |
| 15 | (0.63) | OCCNC(=S)NCC1=C(Cl)CCCC1 [Compound 17, 1-(2-chloro-cyclohex-1-enylmethyl)-3-(2-hydroxy-ethyl)thiourea] |
| 10 | (0.77) | OCCNC(=S)NCC1=C(Br)CCCC1 [Compound 18, 1-(2-Bromo-cyclohex-1-enylmethyl)-3-(2-hydroxy-ethyl)-thiourea] |
